Experiment [1] concerns yeast. The experiment in a line: One-step fermentation of ground corn slurry with T. cingulata GA + R. pusillus AA blend, ethanol by HPLC. It counts as cell-based. The note with it: for Ethanol yield: one-step fermentation. On the procedure: All treatments were evaluated via mini-scale fermentations. 410 g of ground yellow dent corn (with an average particle size around 0.5 mm) was added to 590 g tap water. This mixture was supplemented with 3.0 mL 1 g/L penicillin and 1 g of urea. The pH of this slurry was adjusted to 4.5 with 40% H2SO4. Dry solid (DS) level was determined to be 35 wt. %. Approximately 5 g of this slurry was added to 20 mL vials. Each vial was dosed with the appropriate amount of enzyme dosage shown in Table 2 below followed by addition of 200 microL yeast propagate/5 g slurry. Actual enzyme dosages were based on the exact weight of corn slurry in each vial. Vials were incubated at 32° C. Nine replicate fermentations of each treatment were run. Three replicates were selected for 24 hours, 48 hours and 70 hours time point analysis. Vials were vortexed at 24, 48 and 70 hours and analyzed by HPLC. The HPLC preparation consisted of stopping the reaction by addition of 50 microL of 40% H2SO4, centrifuging, and filtering through a 0.45 micrometer filter. Samples were stored at 4 C until analysis. Agilent™ 1100 HPLC system coupled with RI detector was used to determine ethanol and oligosaccharides concentration. The separation column was aminex HPX-87H ion exclusion column (300 mm×7.8 mm) from BioRad™).
The experiment was carried out as described in Example 2, except that salicylic acid (SA) was replaced with acetyl salicylic acid (ASA). The treatment and enzyme dosing was described in table below.

For experiment [2], the system named is RED STAR yeast. The experiment in a line: Conventional simultaneous saccharification fermentation (SSF) of liquefied corn mash, ethanol yield by weight loss and HPLC. The following applies: weight loss method, all the enzymes tested, FIGS. 1, 2 and 3. It counts as cell-based. On the procedure: Liquefied corn mash was used to evaluate the effect of adding salicylic acid (SA) to a known enzyme dosage of
The performance of these enzymes was compared to controls without salicylic acid addition. The experimental set-up used is described in table below.
5.5 g of RED STAR™ yeast was rehydrated in 100 mL distilled water and incubated at 32° C. for 30 minutes prior to the beginning of fermentation. Approximately 50 million cells/g DS of yeast were added to each of the fermentations.
The corn mash was thawed to room temperature. Urea and Penicillin were added to a final concentration of […] and 3 mg/L respectively. Small-scale (˜4 g) fermentations were carried out in 15 mL polypropylene tubes with five replicates for each experimental condition. The tubes were prepared by drilling a 1/32 inch (1.5 mm) hole and the empty tubes were then weighed before liquefied corn mash was added. The tubes were weighed again after mash was added to determine the exact weight of mash in each tube. This weight was used to calculate the enzyme dosage necessary as follows:
Enzyme was added according to dosage described in table above and 100 μl of rehydrated yeast were added to each tube to begin fermentation. Fermentation progress was followed by weighing the tubes over time for approximately 70 hours. Tubes were vortexed briefly before each weighing. […]

The test system of experiment [3] is yeast. The experiment in a line: Yield boosting effect of salicylic acid on ethanol production from starch-containing material (conventional SSF), summary findings. It counts as cell-based. An excerpt: Further, the effect on yeast growth is 2-fold.
Experiment [4] relates to Pichia stipitis (CBS6054). The note with it: salicylic acid 5 mM, 30° C., pH 6, FIG. 9.
Experiment [5] deals with RED STAR yeast. The experiment in a line: Dose/response study of salicylic acid in conventional SSF. It counts as cell-based. On the procedure:
The experiment was carried out as described in Example 1, except that the following enzyme blends was used for all treatments: • 0.3 AGU Talaromyces emersonii glucoamylase/g DS; • 0.0025 mg Rhizomucor pusillus alpha-amylase/g DS; and • 0.0125 mg Trametes cingulata glucoamylase/g DS. All treatments and controls included 8 replicates. [table]

Structures are written as SMILES.

From patent US20080145903A1, “PROCESSES OF PRODUCING FERMENTATION PRODUCTS” (priority 2006, published 2008) come the findings set out here.

`CC(=O)Oc1ccccc1C(=O)O` [ASA, acetyl salicylic acid, reference compound]: the Ethanol yield in experiment [1] (ASA 1 mM (mM/g DS), 24 hours) worked out at 108.19; in experiment [1] (ASA 1 mM (mM/g DS), 48 hours) it was 153.37; in experiment [1] (ASA 1 mM (mM/g DS), 70 hours) it was 160.39. Besides, in experiment [1] (ASA 1.0 mM/g DS, FIG. 5), the “Fermentation kinetic and final ethanol yield” value was “gave an increase in fermentation kinetic and also final ethanol yield”.

`O=C(O)c1ccccc1O` [SA, salicylic acid]: the “Fermentation kinetic and final ethanol yield” value in experiment [2] was “increases the fermentation kinetic and also final ethanol yield”. Besides, in experiment [3] (at high salicylic acid concentrations), the Residual glucose entry was “increased”. In experiment [3] (at higher concentrations), the “Effect on yeast growth” value is “reduce yeast growth”. Besides, the “Effect on cell growth” value in experiment [3] (at lower concentration) is “positive effect on cell growth”. Besides, the Effective concentration range was 1.25 to 2.5 mM in experiment [3] (by HPLC) and 0.63 to 2.5 mM in experiment [3] (by weight loss determination). Also, the results for the Maximum ethanol increase in experiment [3] (by HPLC) and in experiment [3] (by weight loss determination) were 1.3% and 3.5%, respectively. In experiment [3] (with increasing salicylic acid concentration), the Glycerol production entry was “decreased dramatically”. For the same compound, in experiment [4], the “Ability of P. stipitis to tolerate the inhibitors in the unwashed biomass hydrolyzate” value was “improves the ability of P. stipitis to tolerate the inhibitors”. Further, the Ethanol yield came to 107.77 in experiment [1] (SA 1 mM (mM/g DS), 24 hours); 144.61 in experiment [1] (SA 1 mM (mM/g DS), 48 hours); 151.80 in experiment [1] (SA 1 mM (mM/g DS), 70 hours); 107.53 in experiment [1] (SA 2.5 mM (mM/g DS), 24 hours); 143.11 in experiment [1] (SA 2.5 mM (mM/g DS), 48 hours); 150.80 in experiment [1] (SA 2.5 mM (mM/g DS), 70 hours). The Ethanol yield in experiment [1] (SA 5 mM (mM/g DS), 24 hours) was determined as 104.46; in experiment [1] (SA 5 mM (mM/g DS), 48 hours), 137.21; in experiment [1] (SA 5 mM (mM/g DS), 70 hours), 146.07; in experiment [1] (SA 15 mM (mM/g DS), 24 hours), 75.03; in experiment [1] (SA 15 mM (mM/g DS), 48 hours) it was 117.40; in experiment [1] (SA 15 mM (mM/g DS), 70 hours) it was 126.40. For the same compound, in experiment [1] (Trametes cingulata GA and Rhizomucor pusillus AA blend, FIG. 4), the “Fermentation speed and final ethanol yield” value is “increases the fermentation speed and final ethanol yield”. Also, the “Glycerol after 70 hours of fermentation” value in experiment [5] (HPLC, as a function of SA dose, FIG. 8) is listed as “consistently reduced the amount of the by-product glycerol”. Also, the “Fermentation kinetics and final ethanol yield” value in experiment [5] (weight loss data, FIG. 6) is “increased the fermentation kinetics and final ethanol yield”.
